Laboratory results as given in patent US20240307420A1, “IMPROVED METHODS FOR THE USE OF PSYCHEDELICS” (TRYP Therapeutics Inc., priority 2021, published 2024).
Values joined by “and” are separate entries in the source; they are usually repeats but may differ in a detail not shown here. Equal values may be shown once.

Tests used:
rats [1] = test: Head twitching response (HTR) after one-hour intravenous infusion, video recording; format: in vivo, Sprague Dawley rats; conditions: for Time after termination of infusion up to which head twitching was observed: after one hour 10 mg/kg IV infusion
Procedure: To assess the pharmacodynamics (PD) of intravenously infused psychedelics, animal head-twitching was recorded as an indicator of achieving the dissociative state. Head twitching response (HTR) is used as a surrogate PD marker for the animals achieving or being in the dissociative or psychedelic state (for example, as described in Zhuk et al., Toxins 2015, 7, 1018-1029; Halberstadt et al., J Psychopharmacol. 2011 25(11): 1548-1561). HTR was also used to determine when the end of the dissociative state occurred following discontinuation of the IV infusion.
To assess HTR, a video monitoring system was used to record the animals in this study from discontinuation of the infusion through to the terminal sampling time point (1-hour post infusion). A camera was positioned such that the animals were visible from above. The recording was saved for review and the time of the observed head-twitching behavior, the duration of the observed behavior, and any additional atypical observations were documented.
The number of head-twitching events observed within the 60 minute time period after the one hour intravenous infusion of each of the 3 rats receiving psilocin or psilocybin, were determined from the video recordings. […] Upon termination of the IV infusion of either psilocin or psilocybin, head twitching activity subsided within 50 minutes, supporting the rapid termination of the dissociative or psychedelic, compared to previously reported termination of the dissociative state after an oral administration of psilocybin.

[2] = Plasma psilocin pharmacokinetics during and after one-hour intravenous infusion of psilocin or psilocybin; conditions: for AUC(0-t): AUCT; for concentration at 0.25 h / concentration at 0.5 h / concentration at 1 h / concentration at 2 h / concentration at 4 h / concentration at 6 h / concentration at 8 h: Plasma concentration of psilocin
rats [3] = test: Head twitching response in unrestrained rats prior to, during and after 60 minute infusion (separate study); format: in vivo; conditions: 10 mg/kg over 60 minutes IV
Procedure: In a separate study, unrestrained rats were infused with 10 mg/kg psilocybin over a 60 minute period and head twitching response (HTR) was recorded prior to during and after IV administration. HTR was consistently observed in all tested rats, within 5 minutes after initiation of the infusion, and persisted during the 60-minute infusion period. HTR was discontinued in the animals soon after the termination of the infusion, generally within 30 minutes after the termination of the infusion. The results of the HTR supported the more rapid achievement of the dissociative or psychedelic state, coincident with the rise in systemic plasma psilocin levels, and rapid exit from the dissociative or psychedelic state after the termination of infusion (e.g., as assessed in Example 1).

[4] = single oral administration of psilocybin at 0.225 mg/kg; cited from earlier work
rats [5] = test: Hot Plate assay (HPA) withdrawal latency in formalin-induced rat pain model; format: in vivo; conditions: 52.5° C. hot plate; single 10 mg/kg IV administration
Text: Chronic pain in rats was induced by injection of formalin into the hind paw. The rats subsequently were intravenously administered psilocybin, and assessed for changes in pain perception over an extended period of time. The formalin pain model is a translational animal model for chronic nociplastic pain (Vanini G., Sleep 2016; 39(1): 133-42), including fibromyalgia, phantom limb pain or complex regional pain syndrome. In the formalin pain model, in addition to experiencing extra pain in the formalin-injected paw, the animal experiences increased pain perception (i.e., hyperalgesia) in extremities not injected with formalin (e.g., the contra-lateral hind paw compared to the one injected with formalin). The pain perception was measured in the contra-lateral paw to assess the potential benefit of psychedelics in nociplastic pain disorders. […]
The second pain measurement was based on the Hot Plate Assay (HPA), which measures the withdrawal latency at temperatures that register a painful response (i.e., thermal hyperalgesia). […] Once heated, each animal was placed in cylindrical tube on the hot plate and the latency to lick a hind paw or observed overt escape behavior (e.g., attempt to jump out of cylinder) was recorded (Ingram et al., Neruopsychopharmacology 2007; 32(3):600-6; Gunn et al., J Pain 2011; 12(2):222-7; Hestehave et al., Lab Anim 2016; 51(3):264-72). […]

rats [6] = test: Von Frey assay (VFA) withdrawal threshold in formalin-induced rat pain model; format: in vivo; conditions: contra-lateral paw; single 10 mg/kg IV administration
Text: Chronic pain in rats was induced by injection of formalin into the hind paw. The rats subsequently were intravenously administered psilocybin, and assessed for changes in pain perception over an extended period of time. The formalin pain model is a translational animal model for chronic nociplastic pain (Vanini G., Sleep 2016; 39(1): 133-42), including fibromyalgia, phantom limb pain or complex regional pain syndrome. In the formalin pain model, in addition to experiencing extra pain in the formalin-injected paw, the animal experiences increased pain perception (i.e., hyperalgesia) in extremities not injected with formalin (e.g., the contra-lateral hind paw compared to the one injected with formalin). The pain perception was measured in the contra-lateral paw to assess the potential benefit of psychedelics in nociplastic pain disorders. Reduction in pain perception and the duration of pain reduction were examined following intravenous bolus administration of 10 mg/kg psilocybin, administered over 3 minutes.
Two types of pain perception were measured. First, the Von Frey assay (VFA) was used to measure pain due to pressure exerted on the extremity (i.e., mechanical allodynia). Specifically. […] The minimum amount of force required to evoke a paw withdrawal response in each trial was determined to be the minimum withdrawal threshold for that animal trial. […]

[7] = plasma psilocin, individual rats, 10 mg/kg psilocin one-hour IV infusion

In the case of `CN(C)CCc1c[nH]c2cccc(O)c12` [psilocin, 4-hydroxy-N,N-dimethyltryptamine], the “Rats in which head-twitching was observed” value (rats [1]; 60 minute period after one hour 10 mg/kg IV infusion) is reported as 2 of 3, the “Time after termination of infusion up to which head twitching was observed” value (rats [1]) is reported as no more than 16 min and the “Plasma concentration of psilocin” value ([2]; individual rats, 10 mg/kg psilocin one-hour IV infusion, sampling time 0.25 h) is reported as 1031.8 ng/mL and 982.7 ng/mL. The “Plasma concentration of psilocin” value ([2]; individual rats, 10 mg/kg psilocin one-hour IV infusion, sampling time 0.5 h) was 1731.6 ng/mL and 1489.3 ng/mL, the “Plasma concentration of psilocin” value ([2]; individual rats, 10 mg/kg psilocin one-hour IV infusion, sampling time 1 h) was 2159.5 ng/mL and 1623.2 ng/mL and the “Plasma concentration of psilocin” value ([2]; individual rats, 10 mg/kg psilocin one-hour IV infusion, sampling time 2 h) was 965.6 ng/mL and 740.4 ng/mL. For the same compound, the “Plasma concentration of psilocin” value ([2]; individual rats, 10 mg/kg psilocin one-hour IV infusion, sampling time 4 h) was 249.1 ng/mL and 231.7 ng/mL, the “Plasma concentration of psilocin” value ([2]; individual rats, 10 mg/kg psilocin one-hour IV infusion, sampling time 6 h) was 80.2 ng/mL and 59.6 ng/mL and the “Plasma concentration of psilocin” value ([2]; individual rats, 10 mg/kg psilocin one-hour IV infusion, sampling time 8 h) was 22.5 ng/mL and 26.8 ng/mL. The Tmax ([2]; male, Sprague Dawley, rat, plasma, iv, 10 mg/kg) was 1 h, the AUC(0-t) ([2]; male, Sprague Dawley, rat, plasma, iv, 10 mg/kg, plasma psilocin, individual rats, 10 mg/kg psilocin one-hour IV infusion) was 3550 ng·h/mL and the AUC(0-t) ([2]; male, Sprague Dawley, rat, plasma, iv, 10 mg/kg, plasma psilocin, mean of 3 rats, 10 mg/kg psilocin one-hour IV infusion) was 3980 ng·h/mL. For the same compound, the Cmax ([2]; male, Sprague Dawley, rat, plasma, iv, 10 mg/kg, Cmax, plasma psilocin, individual rats, 10 mg/kg psilocin one-hour IV infusion) was 1610 ng/mL, the Cmax ([2]; male, Sprague Dawley, rat, plasma, iv, 10 mg/kg, Cmax, plasma psilocin, mean of 3 rats, 10 mg/kg psilocin one-hour IV infusion) was 1800 ng/mL and the concentration at 0.25 h ([2]; male, Sprague Dawley, rat, plasma, iv, 10 mg/kg, individual rats, 10 mg/kg psilocin one-hour IV infusion, sampling time 0.25 h) was 1070 ng/mL. It also gave a concentration at 0.5 h ([2]; male, Sprague Dawley, rat, plasma, iv, 10 mg/kg, individual rats, 10 mg/kg psilocin one-hour IV infusion, sampling time 0.5 h) of 1510 ng/mL, a concentration at 1 h ([2]; male, Sprague Dawley, rat, plasma, iv, 10 mg/kg, individual rats, 10 mg/kg psilocin one-hour IV infusion, sampling time 1 h) of 1610 ng/mL and a concentration at 2 h ([2]; male, Sprague Dawley, rat, plasma, iv, 10 mg/kg, individual rats, 10 mg/kg psilocin one-hour IV infusion, sampling time 2 h) of 714 ng/mL. For the same compound, the concentration at 4 h ([2]; male, Sprague Dawley, rat, plasma, iv, 10 mg/kg, individual rats, 10 mg/kg psilocin one-hour IV infusion, sampling time 4 h) was 164 ng/mL, the concentration at 6 h ([2]; male, Sprague Dawley, rat, plasma, iv, 10 mg/kg, individual rats, 10 mg/kg psilocin one-hour IV infusion, sampling time 6 h) was 47.7 ng/mL and the concentration at 8 h ([2]; male, Sprague Dawley, rat, plasma, iv, 10 mg/kg, individual rats, 10 mg/kg psilocin one-hour IV infusion, sampling time 8 h) was 17.3 ng/mL. The concentration at 0.25 h ([2]; male, Sprague Dawley, rat, plasma, iv, 10 mg/kg, mean of 3 rats, 10 mg/kg psilocin one-hour IV infusion, sampling time 0.25 h) was 1030 ng/mL, the concentration at 0.5 h ([2]; male, Sprague Dawley, rat, plasma, iv, 10 mg/kg, mean of 3 rats, 10 mg/kg psilocin one-hour IV infusion, sampling time 0.5 h) was 1580 ng/mL and the concentration at 1 h ([2]; male, Sprague Dawley, rat, plasma, iv, 10 mg/kg, mean of 3 rats, 10 mg/kg psilocin one-hour IV infusion, sampling time 1 h) was 1800 ng/mL. It also gave a concentration at 2 h ([2]; male, Sprague Dawley, rat, plasma, iv, 10 mg/kg, mean of 3 rats, 10 mg/kg psilocin one-hour IV infusion, sampling time 2 h) of 807 ng/mL, a concentration at 4 h ([2]; male, Sprague Dawley, rat, plasma, iv, 10 mg/kg, mean of 3 rats, 10 mg/kg psilocin one-hour IV infusion, sampling time 4 h) of 215 ng/mL and a concentration at 6 h ([2]; male, Sprague Dawley, rat, plasma, iv, 10 mg/kg, mean of 3 rats, 10 mg/kg psilocin one-hour IV infusion, sampling time 6 h) of 62.5 ng/mL. For the same compound, the concentration at 8 h ([2]; male, Sprague Dawley, rat, plasma, iv, 10 mg/kg, mean of 3 rats, 10 mg/kg psilocin one-hour IV infusion, sampling time 8 h) was 22.2 ng/mL, the AUCT [2, 7] was 4656.4 ng·h/mL and 3741.6 ng·h/mL and the Cmax [2, 7] was 2159.5 ng/mL and 1623.2 ng/mL.

With `CN(C)CCc1c[nH]c2cccc(OP(=O)(O)O)c12` [psilocybin, [3-(2-dimethylaminoethyl)-1H-indol-4-yl] dihydrogen phosphate] the “Time to discontinuation of head twitching response after termination of the infusion” value (rats [3]) was no more than 30 min, the “Time to head twitching response after initiation of the infusion” value (rats [3]; all tested rats) was no more than 5 min and the “Time after termination of infusion up to which head twitching was observed” value (rats [1]) was “up to 50 minutes”. For the same compound, the “Average peak concentration of psilocin in plasma” value [4] was 8.2+/−2.8 ng psilocin/ml plasma, the “Time of peak plasma levels of psilocin” value [4] was 105 ± 37 min and the “Duration of improved pain sensitivity response (HPA withdrawal latency) compared to saline control” value (rats [5]) was “at least 4 weeks”. The “Duration of statistically significant increase in VFA withdrawal threshold” value (rats [6]) was 3 weeks.
